ChEMBL document CHEMBL1833846 (Bioorg Med Chem Lett, 2011)

Assays:
[1] = molecular target: Histone deacetylase; test: Inhibition of human HDAC in HeLa cells after 30 mins by Fluor de Lys fluorescence assay; format: cell-based
[2] = molecular target: T1, Histone deacetylase 1 (Homo sapiens, UniProt Q13547); test: Inhibition of HDAC1 assessed as residual activity at 32 uM after 30 mins by Fluor de Lys fluorescence assay
[3] = molecular target: T2, Protein deacetylase HDAC6 (Homo sapiens, UniProt Q9UBN7); test: Inhibition of HDAC6 after 30 mins by Fluor de Lys fluorescence assay
T2 sequence (Q9UBN7 whole entry): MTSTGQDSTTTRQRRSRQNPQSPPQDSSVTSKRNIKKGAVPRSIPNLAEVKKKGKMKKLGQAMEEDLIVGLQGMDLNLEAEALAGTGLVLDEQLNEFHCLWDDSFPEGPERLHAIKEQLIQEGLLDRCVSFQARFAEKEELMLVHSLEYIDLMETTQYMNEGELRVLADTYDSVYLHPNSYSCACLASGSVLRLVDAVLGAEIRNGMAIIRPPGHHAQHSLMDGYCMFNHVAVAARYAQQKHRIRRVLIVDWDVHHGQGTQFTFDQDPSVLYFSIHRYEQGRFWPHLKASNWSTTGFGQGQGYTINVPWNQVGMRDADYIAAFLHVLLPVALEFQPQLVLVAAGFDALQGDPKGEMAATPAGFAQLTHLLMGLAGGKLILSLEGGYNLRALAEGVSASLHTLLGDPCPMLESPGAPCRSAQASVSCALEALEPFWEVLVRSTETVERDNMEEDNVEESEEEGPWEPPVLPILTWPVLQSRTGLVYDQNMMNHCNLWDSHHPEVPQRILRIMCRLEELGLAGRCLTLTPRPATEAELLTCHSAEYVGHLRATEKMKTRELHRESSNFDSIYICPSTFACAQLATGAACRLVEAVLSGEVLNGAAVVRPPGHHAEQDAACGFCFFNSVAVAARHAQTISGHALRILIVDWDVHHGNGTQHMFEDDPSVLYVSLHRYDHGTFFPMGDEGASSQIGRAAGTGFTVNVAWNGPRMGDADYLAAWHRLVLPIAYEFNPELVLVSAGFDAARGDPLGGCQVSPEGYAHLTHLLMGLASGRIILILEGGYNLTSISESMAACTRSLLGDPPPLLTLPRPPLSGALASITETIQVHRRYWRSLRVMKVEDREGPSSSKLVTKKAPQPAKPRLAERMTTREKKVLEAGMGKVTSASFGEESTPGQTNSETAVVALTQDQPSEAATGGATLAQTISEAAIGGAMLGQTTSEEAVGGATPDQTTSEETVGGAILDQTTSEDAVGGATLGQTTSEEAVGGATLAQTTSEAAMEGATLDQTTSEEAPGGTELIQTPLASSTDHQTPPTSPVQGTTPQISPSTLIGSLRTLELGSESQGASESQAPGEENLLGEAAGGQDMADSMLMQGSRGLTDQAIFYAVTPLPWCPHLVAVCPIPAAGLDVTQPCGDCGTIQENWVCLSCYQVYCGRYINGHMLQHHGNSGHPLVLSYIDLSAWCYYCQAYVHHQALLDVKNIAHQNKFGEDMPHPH

[4] = Selectivity ratio of IC50 for HDAC1 to IC50 for HDAC6
[5] = Selectivity ratio of IC50 for HDAC3 to IC50 for HDAC1
[6] = molecular target: T3, Protein deacetylase HDAC6 (Homo sapiens) (UniProt Q9UBN7); test: Inhibition of HDAC6 assessed as residual activity at 32 uM after 30 mins by Fluor de Lys fluorescence assay
T3 sequence (whole entry): T2 sequence (Q9UBN7 whole entry)

[7] = molecular target: T4, Histone deacetylase 3 (Homo sapiens, UniProt O15379); test: Inhibition of HDAC3 assessed as residual activity at 32 uM after 30 mins by Fluor de Lys fluorescence assay
[8] = Selectivity ratio of IC50 for HDAC3 to IC50 for HDAC6
[9] = molecular target: T4, Histone deacetylase 3; test: Inhibition of HDAC3 after 30 mins by Fluor de Lys fluorescence assay
[10] = molecular target: T1, Histone deacetylase 1; test: Inhibition of HDAC1 after 30 mins by Fluor de Lys fluorescence assay
[11] = molecular target: T3, Protein deacetylase HDAC6 (Homo sapiens); conditions: 375 nM
[12] = molecular target: T4, Histone deacetylase 3; conditions: 375 nM
[13] = molecular target: T1, Histone deacetylase 1; conditions: 375 nM

T1 sequence (Q13547 whole entry): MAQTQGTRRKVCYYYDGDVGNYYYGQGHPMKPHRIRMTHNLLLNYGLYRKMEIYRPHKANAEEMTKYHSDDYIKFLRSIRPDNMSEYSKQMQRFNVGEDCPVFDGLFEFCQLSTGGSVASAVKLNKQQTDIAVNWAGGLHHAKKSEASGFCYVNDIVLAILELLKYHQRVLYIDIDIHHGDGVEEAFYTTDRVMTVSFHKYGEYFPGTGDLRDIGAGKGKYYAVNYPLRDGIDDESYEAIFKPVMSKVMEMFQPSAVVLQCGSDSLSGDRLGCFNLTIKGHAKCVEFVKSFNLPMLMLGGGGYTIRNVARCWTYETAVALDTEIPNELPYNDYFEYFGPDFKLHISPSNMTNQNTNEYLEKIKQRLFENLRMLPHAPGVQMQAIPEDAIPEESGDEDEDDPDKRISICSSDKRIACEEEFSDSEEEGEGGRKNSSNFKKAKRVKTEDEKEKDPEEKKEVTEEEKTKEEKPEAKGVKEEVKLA
T4 sequence (O15379 whole entry): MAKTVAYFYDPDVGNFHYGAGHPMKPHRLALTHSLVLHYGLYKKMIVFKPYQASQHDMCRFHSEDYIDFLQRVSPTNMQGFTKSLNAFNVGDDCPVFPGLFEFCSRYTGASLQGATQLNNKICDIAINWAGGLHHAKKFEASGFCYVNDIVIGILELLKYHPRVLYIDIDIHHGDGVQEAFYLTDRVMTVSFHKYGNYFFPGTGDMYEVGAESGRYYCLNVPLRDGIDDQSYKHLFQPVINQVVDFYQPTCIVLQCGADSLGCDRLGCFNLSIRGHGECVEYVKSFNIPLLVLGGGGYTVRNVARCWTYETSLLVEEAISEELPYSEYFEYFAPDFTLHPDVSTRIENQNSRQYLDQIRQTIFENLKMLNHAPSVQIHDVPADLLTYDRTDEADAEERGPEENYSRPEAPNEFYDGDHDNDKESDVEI

IC50 [1] [µM]	Activity [2] [%]	Ratio IC50 [4]	Activity [6] [%]	Activity [7] [%]	SMILES	further results
73	45		25	50	O=C(CC(CCCCC(=O)Nc1ccccc1)c1ccccc1)NO (configuration not stated)	
15	24		27	47	C=CC(CCCCC(=O)Nc1ccccc1)CC(=O)NO (configuration not stated)	
		7			O=C(CCCCCCC(=O)Nc1ccc([C@H]2O[C@@H](CSc3nc(-c4ccccc4)c(-c4ccccc4)o3)C[C@@H](c3ccc(CO)cc3)O2)cc1)NO	

More lines, now with the values behind:

SMILES	IC50 [1] [µM]	Activity [2] [%]	Ratio IC50 [4]	Activity [6] [%]	Activity [7] [%]	further results
CCC(CCCCC(=O)Nc1ccccc1)CC(=O)NO (configuration not stated)	32	39	3	18	83	IC50 [3]: 8 µM; Ratio IC50 [5]: 4; Ratio IC50 [8]: 12; IC50 [9]: 97 µM; IC50 [10]: 22 µM
CC(CCCCC(=O)Nc1ccccc1)CC(=O)NO (configuration not stated)	0.35					Activity [11]: 74%; Activity [12]: 59%; Activity [13]: 46%
CCCCC(CCCCC(=O)Nc1ccccc1)CC(=O)NO (configuration not stated)	184	33		24	51	
